Reference: patent US20070219162A1, “Partially-fluorinated ethers, compositions and uses thereof, for long-term tamponade in the eye” (THE TRUSTEES OF COLUMBIA UNIVERSITY IN THE CITY OF NEW YORK, priority 2004, published 2007)

Legend:
[1] = Refractive index of tamponading agents; format: physicochemical; conditions: Table 1
[2] = Boiling point of tamponading agents; conditions: Table 1
[3] = Viscosity of tamponading agents; format: physicochemical
[4] = Tamponade force calculated from specific gravity difference to fluid vitreous; format: physicochemical; design: unit not given beside the values; conditions: difference in specific gravity to fluid vitreous (1.03) multiplied by volume of tamponade agent (5 mL)
[5] = Specific gravity of tamponading agents; format: physicochemical
Source text: Soluble Mixtures of Partially Fluorinated Ethers. The presence of the hydrocarbon chain in the structure of formula (I) has a large effect on the solubility properties of the molecule. The partially fluorinated ethers of formula (I) are completely miscible with certain perfluorocarbons, such as perfluoro-n-octane (“PFnO”) (C8F18), perfluoroethylcyclohexane (C8F16), perfluorodecalin (C10F18), and perfluorophenanthrene (C14F24). The solubility of formula (I) liquids with perfluorocarbons enables the design of soluble mixtures that can be used as long-term postoperative tamponade agents that have a specific gravity less than 1.6 or 1.5 such that the probability of retinal damage due to weight is reduced. For example, the commonly used intraoperative perfluorocarbon, PFnO, has a specific gravity of about 1.7. Thus, in order to make a soluble mixture of PFnO and DFPE (which has a specific gravity of about 1.3) that has a specific gravity less than 1.6 or 1.5, then one can use a greater amount of DFPE to reduce the specific gravity of the soluble mixture. For example, a mixture comprising about 25% PFnO and about 75% DFPE has a specific gravity of 1.39 at body temperature (see Table 1). This general strategy of mixing lighter partially fluorinated ether liquids with perfluorocarbon liquids can be conducted with any of the formula (I) liquids and a perfluorocarbon liquid, as long as they are miscible. Further, one can also make soluble mixtures between different partially fluorinated ethers in order to obtain a liquid tamponade agent that has a preferred specific gravity.
Further, one can use the strategy of mixing partially fluorinated ether liquids of formula (I) with lighter tamponade liquids, such as silicone, in order to resolve buoyancy problems and to increase tamponade force. As described previously, because silicone liquids are lighter than water and are immiscible in water, silicone liquids form a globule that rises above aqueous solutions. To rectify this problem, partially fluorinated ether liquids can be mixed with silicone liquids and oils such that soluble mixture has a specific gravity greater than 1.0. In one embodiment, partially fluorinated ether and silicone solutions have a specific gravity between about 1.00 and about 1.06. For example, DFPE can be mixed with silicone oil (such as dimethyl siloxane) and be soluble in silicone oil up to about 20% DFPE (weight to weight (w/w)). Thus, the invention contemplates DFPE and silicone mixtures where DFPE comprises between about 10% and about 20% of the solution and where silicone comprises between about 90% and about 80% of the solution. In one embodiment, a soluble mixture comprises between about 15% and about 18% (w/w) DFPE and between about 85% and about 82% (w/w) silicone oil. In another embodiment, a soluble mixture of about 18% (w/w) DFPE and about 82% (w/w) silicone oil has a specific gravity of about 1.02 at 37° C. In another embodiment, a soluble mixture of about 20% (w/w) DFPE and about 80% (w/w) silicone oil has a specific gravity of about 1.02-1.03. Perfluorocarbon liquids cannot be easily mixed with silicone liquids because perfluorocarbon liquids, not having any hydrocarbons, are only soluble up to less than about 1000 ppm with silicone.

[6] = format: physicochemical
Source text: Soluble Mixtures of Partially Fluorinated Ethers. The presence of the hydrocarbon chain in the structure of formula (I) has a large effect on the solubility properties of the molecule. The partially fluorinated ethers of formula (I) are completely miscible with certain perfluorocarbons, such as perfluoro-n-octane (“PFnO”) (C8F18), perfluoroethylcyclohexane (C8F16), perfluorodecalin (C10F18), and perfluorophenanthrene (C14F24). The solubility of formula (I) liquids with perfluorocarbons enables the design of soluble mixtures that can be used as long-term postoperative tamponade agents that have a specific gravity less than 1.6 or 1.5 such that the probability of retinal damage due to weight is reduced. For example, the commonly used intraoperative perfluorocarbon, PFnO, has a specific gravity of about 1.7. Thus, in order to make a soluble mixture of PFnO and DFPE (which has a specific gravity of about 1.3) that has a specific gravity less than 1.6 or 1.5, then one can use a greater amount of DFPE to reduce the specific gravity of the soluble mixture. For example, a mixture comprising about 25% PFnO and about 75% DFPE has a specific gravity of 1.39 at body temperature (see Table 1). […]

eye [7] = conditions: in vivo
Source text: FIG. 4 and FIG. 5 show results indicating the long term biocompatibility of the eye to decafluoro-di-n-pentyl ether. […] Thus, the above characteristics, combined with the specific-gravity characteristics of the partially fluorinated ethers of formula (I), allow for their long-term use in the eye without damage, and with improved efficacy, convenience and biocompatibility. […] The invention contemplates the use of liquid tamponade agents comprising partially fluorinated ethers according to formula (I) for postoperative periods such as: hours, days, weeks, 1 month, 2 months, 3 months, greater than 3 months, greater than 6 months, up to 1 year, up to 2 years or more. Period greater than 1 year are not generally required for tamponade.

eye [8] = assay: Gas chromatography of DFPE recovered from the eye; format: in vivo; conditions: after one month of residence time in the eye
[9] = format: physicochemical; remark: listed apart in the source
Method: (§1) DFPE liquid is stable. […] Further, a mixture of DFPE in silicone (20% DFPE (w/w) and 80% silicone (w/w)) is stable through daily temperature cycling (20-40° C.) through at least 18 months. Further with respect to water insolubility, a single drop of DFPE (about 50 ppm) added to one liter of water remains visible, unchanged and undissolved for long periods of time (at least greater than 8 months).

[10] = Water insolubility (single drop in one liter of water); format: physicochemical; conditions: single drop (about 50 ppm) added to one liter of water
Method: as §1

[11] = approximate, no temperature stated

In the case of `FC(F)(F)C(F)(F)C(F)(F)C(F)(F)C(F)(F)C(F)(F)C(F)(F)C(F)(F)F` [PFnO, perfluoro-n-octane], the “Refractive Index” value [1] is reported as 1.27, the “Boiling Point” value [2] is reported as 105 °C and the “Viscosity (centistrokes at 25° C.)” value [3] is reported as 0.8 centistrokes. For the same compound, the “Tamponade Force” value [4] was 3.65, the “Specific Gravity” value ([5]; Table 1) was 1.76 and the Specific Gravity [5, 11] was “about 1.7”.

In the case of `FC1(F)C(F)(F)C(F)(F)C2(F)C(F)(F)C(F)(F)C(F)(F)C(F)(F)C2(F)C1(F)F` (stereo not shown) [Perfluorodecalin, perfluorodecalin], the “Refractive Index” value [1] is reported as 1.31, the “Boiling Point” value [2] is reported as 177 °C and the “Viscosity (centistrokes at 25° C.)” value [3] is reported as 2.7 centistrokes. For the same compound, the “Tamponade Force” value [4] was 4.55 and the “Specific Gravity” value ([5]; Table 1) was 1.94.

With `Fc1c(F)c(F)c2c(c1F)c(F)c(F)c1c(F)c(F)c(F)c(F)c12` [Perfluorophenanthrene, perfluorophenanthrene] the “Refractive Index” value [1] was 1.28, the “Boiling Point” value [2] was 215 °C and the “Viscosity (centistrokes at 25° C.)” value [3] was 8.03 centistrokes. The “Tamponade Force” value [4] was 5.0 and the “Specific Gravity” value ([5]; Table 1) was 2.03.

In the case of `FC(F)(F)C(F)(F)CCCOCCCC(F)(F)C(F)(F)F` [DFPE, decafluoro-di-n-pentyl ether], the “solubility in silicone oil” value [6] is reported as “up to 20 % (w/w)”, the “amplitudes of electroretinographic responses” value (eye [7]) is reported as “does not exhibit any negative effects” and the “implicit times of electroretinographic responses” value (eye [7]) is reported as “does not exhibit any negative effects”. For the same compound, the “changes in composition of DFPE recovered from the eye” value (eye [8]) was “less than 0.05%”, the “Tamponade Force” value [4] was 1.4 and the “stability to sunlight exposure” value [9] was “stable to sunlight exposure”. For the same compound, the stable over time ([9]; ambient temperature) was “at least 2 years”, the “stable when exposed to heat” value ([9]; heat exposure) was “up to 95 °C” and the “time a single drop remains visible, unchanged and undissolved in water” value [10] was “greater than 8 months”. For the same compound, the “Specific Gravity” value ([5]; Table 1) was 1.31, the Specific Gravity [5, 11] was “about 1.3” and the Specific Gravity ([5]; at body temperature) was 1.31.
